The text below walks through data of patent US6417160B1, “Methods for increasing schwann cell survival” (priority 1997, dated 2002).

Series [1] relates to PD2 (non-proliferating) and PD15 (proliferating) Schwann cells. In words: Schwann cell survival in high glucose media (counts of intact nuclei). In kind it is cell-based, rat. The note with it: IGF-1 1 ng/ml, NAC 10^−7 M, DMD 10^−9 M; for Schwann cell survival: 24 hr of high glucose exposure (40 mM); for number of cells (intact nuclei relative to 5.5 mM glucose control): 40 mM glucose, 2 hr.

Another series concerns PD2 Schwann cells. In words: Mitochondrial membrane potential (ΔΨM) by CMTMR confocal imaging. In kind it is cell-based, rat. The note with it: 40 mM glucose, DMD 10^−9 M; for CMTMR fluorescent intensity (confocal images): 6 hr, CsA 10^−7 M, ATR 1 mM; for distribution frequencies of ΔΨM (CMTMR intensity): 6 h, CsA 10^−7, ATR 1 mM. From the text:
As has been previously reported in a number of models of apoptosis, apoptotic cell death is often preceded by a fall in mitochondrial membrane potential (ΔΨM). […] This dye is preferentially taken up by actively respiring mitochondria where it binds to protein thiol groups within the mitochondrial matrix and is retained following aldehyde fixation. The CMTMR fluorescence intensity therefore represents the highest level of negativity difference (i.e., the greatest ΔΨM) in the mitochondria during the period of dye exposure prior to fixation.
A Leica true confocal scanning (TCS) microscope was used to image the cells. A pinhole aperture of 20 is maintained with constant laser and photo-detector power settings and an excitation filter wavelength of 488 nm and a band-pass emission filter of 600/30 nm. Each image was scanned using an oil-immersion, 100×, 1.4 N.A. objective at 512 by 512 by 8 bits per pixel resolution, background offset of −1 and line averaged 32 times. The confocal images were saved as grey-scale tagged image file format (TIFF) files for analysis and recolourization. The Metamorph™ (Universal Imaging, Ltd.) image capture and analysis system for Windows was used to measure the intensity of CMTMR fluorescence in individual mitochondria. In each mitochondrion, no fewer than two regions were defined by a box measuring 9 pixels square each. The average intensity per pixel within each defined region is measured and automatically logged to a Microsoft Excel spreadsheet for analysis.
At the end of the indicated time point, Schwann cells so treated were incubated with CMTMR to estimate ΔΨM, fixed with 4% paraformaldehyde, and processed for the immunocytochemical co-localization of hexokinase (Type 1) to mitochondria. The fixed coverslips were blocked for 1 hr with 10% normal donkey serum to minimize non-specific binding, and incubated with a mouse monoclonal antibody raised against hexokinase (Type 1; Chemicon) at a dilution of 1:500 overnight at 4° C. Coverslips were washed in PBS and incubated with a Cy5 conjugated donkey anti-mouse (Jackson Immuno Research) at a dilution of 1:250 for 1 hr at room temperature. Coverslips were then washed with PBS and mounted with Aquamount (BDH).

The next series deals with Schwann cells. In words: NO production by Griess reaction (secreted nitrite in culture medium). The note with it: for NO2 production: Schwann cells exposed to 40 mM glucose, 24 hr, DMD 10^−9 M, L-NIL 10^−4 M. In kind it is cell-based, rat. The protocol: To determine the role of NO signaling in high glucose induced Schwann cell apoptosis, PD2 and PD15 Schwann cells were cultured, as described, in the presence of 5.5 or 40 mM glucose for 24 hr. Cells exposed to 40 mM glucose were also treated with DMD (10^−9 M), the NOS inhibitor L-NIL (10^−4 M) or an inhibitor of the constitutive, Ca^++-dependent isoform of NOS (cNOS), S-methyl-thiocitruline (SMTC, 10^−4 M). […] PD2 Schwann cells were also treated with increasing amounts of TNF-α […] plus IFN-γ (50, 100, 250, and 500U) for 24 hr to establish a dose-response threshold for the assay.
The Griess reaction, which measures secreted nitrite (NO2) in the culture medium, was used to investigate NO production by Schwann cells.

Series [2] can be described thus: Cell rescue with P450 inhibitor Proadifen (animal and cell-culture studies). The note with it: P450 inhibitor Proadifen co-administered.
A further series has as its system PC12 cells. The note with it: cited from earlier work.
The test system of series [3] is cultured cerebellar granule cells. The note with it: cited from earlier work.
The test system of series [4] is neuronal and non-neuronal cells. The note with it: several systems; cited from earlier work.
The nature of series [5]: Hepatic metabolism after oral administration.
A short description of series [6]: Stability of deprenyl versus pH of the medium. The note with it: pH about 3-5 versus pH about 7.

For the compound “IGF-1: insulin-dependant growth factor (IGF); anti-apoptotic agent added to high glucose media”, the Schwann cell survival result in series [1] was “significantly improve Schwann cell survival”. The “number of cells (intact nuclei relative to 5.5 mM glucose control)” value in series [1] (non-proliferating cells) and in [1] (proliferating cells) was “significant increase” throughout.
On to cyclosporin A [CsA], for which, in the series with PD2 Schwann cells, the “CMTMR fluorescent intensity (confocal images)” value (“CMTMR fluorescent intensity” for short) was “enhanced brightness”.
`C#CCNC(C)Cc1ccccc1` (single isomer, unassigned; (-)) [DMD, (−)-desmethyldeprenyl]: the Schwann cell survival entry in series [1] was “significantly improve Schwann cell survival”. Further, the “number of cells (intact nuclei relative to 5.5 mM glucose control)” value in [1] (non-proliferating cells) and in series [1] (proliferating cells) was “significant increase” each time. Moreover, in the series on PD2 Schwann cells, the “distribution frequencies of ΔΨM (CMTMR intensity)” value is reported as “restored ΔΨM distributions comparable with the base media”. In the series on PD2 Schwann cells, the “CMTMR fluorescent intensity” value is “comparable levels of CMTMR fluorescent intensity compared with cells in base media”. In the series on Schwann cells, the NO2 production result is given as “slight decrease”. Also, the “cell-rescuing activity on administration of Proadifen” value in series [2] was “does not block the cell-rescuing activity”.
As to `CC(=O)N[C@@H](CS)C(=O)O` [NAC, N-acetyl-L-cysteine], in series [1], the Schwann cell survival entry was “significantly improve Schwann cell survival”. Also, the “number of cells (intact nuclei relative to 5.5 mM glucose control)” value in series [1] (non-proliferating cells) and in [1] (proliferating cells) was “significant increase” each time.
Consider `CC(=N)NCCCC[C@H](N)C(=O)O` [L-NIL], for which the “stimulation of NO2 release by TNF-α/IFN-γ” value with Schwann cells (L-NIL added) is “prevented”. The NO2 production result in the series with Schwann cells was “slight decrease”.
For `C#CCN(C)[C@H](C)Cc1ccccc1` [(−)-deprenyl, R-(−)-N,α-Dimethyl-N-2-propynyl phenethylamine], the “trophic withdrawal induced drop in ΔΨM” value with PC12 cells is given as “prevent”. The “AraC induced drop in ΔΨM” value in [3] is on record as “prevent”. Further, the “apoptotic death of neuronal and non-neuronal cells” value in series [4] was “reduce the apoptotic death”. For the same compound, in series [5], the “metabolites formed by the liver” value was “(−)-desmethyldeprenyl, as well as (−)-methamphetamine and (−)-amphetamine”. For the same compound, the stability entry in [6] was “more stable at a pH in the range of about 3-5 than at a pH of about 7”. For the same compound, the “cell-rescuing activity on administration of Proadifen” value in series [2] is reported as “reduces the ability of (−)-deprenyl to prevent cell death”.
In the case of `C=C1[C@@H]2CC[C@H]3[C@]4(C)C[C@H](O[C@@H]5O[C@H](CO)[C@@H](OS(=O)(=O)O)[C@H](OS(=O)(=O)O)[C@H]5OC(=O)CC(C)C)C[C@@H](C(=O)O)[C@H]4CC[C@]3(C2)[C@H]1O` [ATR, atractyloside], in the series with PD2 Schwann cells, the “distribution frequencies of ΔΨM (CMTMR intensity)” value is “pronounced shift to the left” and the “CMTMR fluorescent intensity” value is reported as “decreased CMTMR brightness”.
